Data as given in the NIST ThermoML archive (doi:10.1021/acs.jced.8b00908).
± gives the expanded uncertainty stated by the source. Blank lines part the entries; values can stand above or below the compound they belong to.

Details: Liquid, Ebulliometric method (Recirculating still)

Structure (SMILES): C=CCO [2-propenol]
vapor or sublimation pressure (369.94 K): 101.3 ± 3.5 kPa

vapor or sublimation pressure (350.28 K): 101.3 ± 3.5 kPa
Structure (SMILES): CCOC(C)=O [ethyl acetate]

vapor or sublimation pressure (352.47 K): 101.3 ± 3.5 kPa
Structure (SMILES): CCC(=O)OC [methyl propanoate]

vapor or sublimation pressure (334.12 K): 101.3 ± 3.5 kPa
Structure (SMILES): ClC(Cl)Cl [trichloromethane]
